Results published in patent US20120088667A1, “SAFENING AGENT” (priority 2009, published 2012).

Experiments:
oilseed rape = assay: Safening oilseed rape using a variety of safening compounds of classes (a) to (f) with herbicides; type: in vivo; conditions: herbicide Bifenox (with insecticide cypermethrin)
Text: Safening compounds were selected from the list of compounds below. The compounds used are highlighted in bold. • (a) Glucose (GL), hydrolysed starch, sucrose (S), fructose (FR), glycerol (G), glyceraldehydes, erythrose, ribulose, xylulose or arabinose or an ester or glycoside or metabolic equivalent of such a carbohydrate; • (b) an organic acid of the Krebs Tricarboxylic Acid Cycle or a metabolic precursor thereof (including citric (C), succinic (SU), malic, pyruvic, acetic and fumaric acids); • (c) a vitamin or coenzyme, eg thiamine (T), riboflavin (R), pyridoxine (P), pyridoxamine, pyridoxal, nicotinamide (N), folic acid (F), ascorbic acid (AA), Biotin (B) and vitamin B12 (B12) or a precursor thereof including nicotinic acid • (d) a purine or pyrimidine nucleoside, nucleotide or a metabolic precursor thereof, eg adenine, adenosine, thymine, thymidine, cytosine, guanine, guanosine, hypoxanthine, uracil, uridine or inosine, to act as structural precursors for nucleic acid synthesis. • (e) a naturally occurring fat or oil including olive, soya, coconut and corn (Oil) oils; • (f) an amino acid of a type that occurs naturally in plant proteins, eg glycine (GLY), alanine (AL), valine, leucine (LE), isoleucine, serine, threonine (THR), cysteine (CY), methionine (ME), aspartic acid, glutamic acid, glutamine (GLU), asparagine (AS), lysine (LY), hydroxylysine, arginine, histidine, phenylalanine, tyrosine, tryptophan, proline, or hydroxyproline. Statistical Layout: Randomised Complete Block trial, under glasshouse conditions, United Kingdom.

Soybean = assay: Root nodulation and safening, soybean, compost of low pH (Example 7.1)
Text: (§1) The safener/safening system and the fertiliser were applied to the crops either simultaneously or sequentially.
(§2) Co=100% Cobalt Sulphate (20 g per litre and per hectare). FF1=20 g per litre Cobalt Sulphate (as per Co above) plus “Miracle-Gro” at xl recommended rate (applied at 15 g per 2.5 sq metres). Miracle-Gro contains: 24% N, 4% P, 13% K, plus 0.02% B, 0.03% Cu, 0.19% Fe, 0.05% Mn, 0.001% Mo and 0.03% Zn. FF2=20 g per litre Cobalt Sulphate plus Miracle-Gro at ×2 recommended rate. SAF: at least one from class (f) each at <3 g/l, plus at least one from class (c).
Scored/Counted+28 Days After Spraying. Sown in Compost of low pH (5.0-5.5) on 1 May 2008. Spray Date (VC)=4 June, V1 Date=20 June. Scored/Measured on 17 July. […] Seed density approx 110 kg/ha. Soybean treated with standard inoculant at sowing.

Glycine max (Soybean) = assay: Root nodulation and safening, soybean, compost of normal pH (Example 7.2); conditions: compost of normal pH (6.5)
Text: as §1, §2
Dates as per Example 7.1 above, but sown in compost of normal pH (6.5). Each treatment represents the mean values for 12 plants, within four replicates. Sowing density 110 kg/ha. Standard inoculant applied at sowing.

NAVY BEAN cv Mogex [1] = assay: Root nodulation and safening, navy bean, compost of low pH (Example 7.3); conditions: compost of low pH (5.0-5.5)
Text: as §1, §2
NAVY BEAN cv Mogex. Scored/Counted+28 Days after Spraying. Sown in Compost of low pH (5.0-5.5) on 29 Apr. 2008. Spray Date (VC)=27 May, V1 Date=16 June. Scored/Measured on 11 July. Each treatment represents the mean value of 12 plants, within four replicates. No inoculum applied.

NAVY BEAN cv Mogex [2] = assay: Root nodulation and safening, navy bean, compost of normal pH (Example 7.4); conditions: compost of normal pH (6.5)
Text: as §1, §2
NAVY BEAN cv Mogex. Scored/Counted+28 Days after Spraying. Dates as per Example 7.3 Above, but sown in compost of normal pH (6.5). Each treatment represents the mean value from 12 plants, within four replicates. No inoculum applied.

PEA cv Ragtime [3] = assay: Root nodulation, rooting and safening, pea, compost of low pH (Examples 7.5 and 7.7)
Text: as §1, §2
PEA—TRIAL 5—cv Ragtime. Scored/Counted+28 Days after Spraying. Sown in Compost of Low pH (5.0-5.5) on 28 Apr. 2008. Spray Date (VC)=26 May, V1 Date=14 June. Scored/Measured on 9 July. […] No inoculum applied.
Sowing details etc as per Example 7.5.

PEA cv Ragtime [4] = assay: Root nodulation and safening, pea, compost of normal pH (Example 7.6); conditions: compost of normal pH (6.5)
Text: as §1, §2
PEA—TRIAL 7.6—cv Ragtime. Dates as per Example 7.5 above, but sown in compost of normal pH (6.5). […] No inoculum was applied.

Winter wheat cv Alchemy = assay: Safening of herbicides from addition of auxin/auxin precursor and acetaminophen, winter wheat; conditions: auxins/precursors 10^-2 Molar, AC 3 g per hectare, 0-9 scale, 0=dead plant
[5] = Soybean, compost of low pH (5.0-5.5), V1, score 0-9
[6] = V1, +28 days after spraying, no inoculum
[7] = compost of low pH (5.0-5.5), V1, score 0-9
[8] = low pH compost, application at V1, 0-9 scale

Nc1ccccc1C(=O)O [2. AN (Anthranilic Acid)]
Phytotoxicity (0-9) (0 = Dead) + 14 Days (oilseed rape; score 0-9, 0 = Dead, 14 days): 8.0
Vigour (0-9) (0 = Dead) + 14 days (oilseed rape; score 0-9, 0 = Dead, 14 days): 8.0
Phytotoxicity (0-9) (0 = Dead) + 28 Days (oilseed rape; score 0-9, 0 = Dead, 28 days): 8.0
Vigour (0-9) (0 = Dead) + 28 Days (oilseed rape; score 0-9, 0 = Dead, 28 days): 8.0
Rooting (0-9) (9 = Best Rooting) + 28 Days (oilseed rape; score 0-9, 9 = Best Rooting, 28 days): 8.0

O=S(=O)([O-])[O-].[Co+2] [cobalt, Cobalt Sulphate]
Nodules Per Plant (V1) (Soybean; Soybean, compost of low pH (5.0-5.5), V1, +28 days after spraying, mean of 12 plants): 27.3
Nodulation Score (0-9) (V1) (Soybean; [5]): 5.2
Phyto-Toxicity Score (0-9) (V1) (Soybean; [5]): 7.8
Vigour Score (0-9) (V1) (Soybean; [5]): 6.0
Nodules Per Plant (VC) (Soybean; Soybean, compost of low pH (5.0-5.5), VC, +28 days after spraying): 28.8
Nod Score (0-9) (VC) (Soybean; Soybean, compost of low pH (5.0-5.5), VC, score 0-9): 5.4
nodulation (Soybean; nitrogen fixing crops): increases nodulation
Nodules Per Plant (V1) (Glycine max (Soybean); V1, mean of 12 plants): 29.8
Nodulation Score (0-9) (V1) (Glycine max (Soybean); V1, score 0-9): 5.5
Phyto-Toxicity Score (0-9) (V1) (Glycine max (Soybean); V1, score 0-9): 8.0
Vigour Score (0-9) (V1) (Glycine max (Soybean); V1, score 0-9): 6.5
Nodules Per Plant (VC) (Glycine max (Soybean); VC): 28.0
Nod Score (0-9) (VC) (Glycine max (Soybean); VC, score 0-9): 5.3
Nodules Per Plant (V1) (NAVY BEAN cv Mogex [1]; [6]): 21.0
Nodulation Score (0-9) (V1) (NAVY BEAN cv Mogex [1]; V1, score 0-9): 3.3
Phyto-Toxicity Score (0-9) (V1) (NAVY BEAN cv Mogex [1]; V1, score 0-9): 5.7
Vigour Score (0-9) (V1) (NAVY BEAN cv Mogex [1]; V1, score 0-9): 5.9
Nodules Per Plant (VC) (NAVY BEAN cv Mogex [1]; VC): 23.8
Nod Score (0-9) (VC) (NAVY BEAN cv Mogex [1]; VC, score 0-9): 3.8
Nodules Per Plant (V1) (NAVY BEAN cv Mogex [2]; [6]): 33.5
Nodulation Score (0-9) (V1) (NAVY BEAN cv Mogex [2]; V1, score 0-9): 5.2
Phyto-Toxicity Score (0-9) (V1) (NAVY BEAN cv Mogex [2]; V1, score 0-9): 7.3
Vigour Score (0-9) (V1) (NAVY BEAN cv Mogex [2]; V1, score 0-9): 7.2
Nodules Per Plant (VC) (NAVY BEAN cv Mogex [2]; VC): 31.8
Nod Score (0-9) (VC) (NAVY BEAN cv Mogex [2]; VC, score 0-9): 5.0
Nodules Per Plant (V1) (PEA cv Ragtime [3]; compost of low pH (5.0-5.5), V1, +28 days after spraying, no inoculum): 16.4
Nodulation Score (0-9) (V1) (PEA cv Ragtime [3]; [7]): 5.0
Phyto-Toxicity Score (0-9) (V1) (PEA cv Ragtime [3]; [7]): 5.1
Vigour Score (0-9) (V1) (PEA cv Ragtime [3]; [7]): 5.8
Nodules Per Plant (VC) (PEA cv Ragtime [3]; compost of low pH (5.0-5.5), VC): 18.1
Nod Score (0-9) (VC) (PEA cv Ragtime [3]; compost of low pH (5.0-5.5), VC, score 0-9): 5.3
Nodules Per Plant (V1) (PEA cv Ragtime [3]; low pH compost, application at V1 (data from Example 7.5)): 16.4
Nodulation Score (0-9) (V1) (PEA cv Ragtime [3]; [8]): 5.0
Phyto-Toxicity Score (0-9) (V1) (PEA cv Ragtime [3]; [8]): 5.1
Rooting Score (0-9) (V1) (PEA cv Ragtime [3]; [8]): 4.2
Nodules Per Plant (V1) (PEA cv Ragtime [4]; V1, no inoculum): 16.9
Nodulation Score (0-9) (V1) (PEA cv Ragtime [4]; V1, score 0-9): 5.1
Phyto-Toxicity Score (0-9) (V1) (PEA cv Ragtime [4]; V1, score 0-9): 6.9
Vigour Score (0-9) (V1) (PEA cv Ragtime [4]; V1, score 0-9): 6.8
Nodules Per Plant (VC) (PEA cv Ragtime [4]; VC): 17.4
Nod Score (0-9) (VC) (PEA cv Ragtime [4]; VC, score 0-9): 5.2

Nc1ccccc1C(=O)O [Anthranilic acid (AN)]
Phytotoxicity (0-9) (0 = Dead) + 14 Days (Winter wheat cv Alchemy; 14 days after spraying): 8.0
Phytotoxicity (0-9) (0 = Dead) + 28 Days (Winter wheat cv Alchemy; 28 days after spraying): 8.0
